{"source": "patent US11844771B2", "about": "“Methods of treating acute respiratory distress syndrome using colchicine” (INSTITUT DE C[…] MONTREAL, priority 2021, dated 2023)", "key": {"oleic acid-induced ALI [1]": {"test_system": "oleic acid-induced ALI", "assay": "Oleic acid-induced ALI rat model: lung edema and arterial blood gas", "format": "in vivo", "experimental": "(§1) Animal model and colchicine administration. Male Wistar rats weighing 250-300 g were purchased from Charles River, St. Constant, Québec. They were divided in three groups: Sham+placebo (n=8), oleic acid+placebo (n=8) and oleic acid+colchicine (n=8). Oleic acid (150 mg/kg in 0.3 cc) was prepared daily as a mixture with 0.1% bovine serum albumin (BSA) dissolved in distilled water, stored and protected from light at room temperature. Colchicine (1 mg/kg) or distilled water (placebo) was administered by daily gavage (in a volume up to 2 ml/kg) for three days before the induction of the ALI model. On the beginning of the fourth day a last forth dose of colchicine or placebo was administered and rats immediately injected via a jugular vein cannula with oleic acid or with 0.1% BSA. There was no death in the sham group. There was one death in the oleic acid+placebo group 3 hours after injection of oleic acid and prior to any measurement.\nThere was one surgical death in oleic acid+colchicine treatment by laceration of the jugular vein, prior to injection of oleic acid. Oleic acid was administered under ketamine/xylazine anesthesia by slow bolus injection over 30 seconds and the catheter was flushed with 0.3 ml of 0.1% BSA before and after injection. Four hours later, the animals were studied. Conscious unrestrained respiratory parameters were obtained by whole body plethysmography (Emka technologies). Rats were then anesthetized with 2.5% isoflurance and 100% oxygen (1 L/min) administered with a nose cone/face mask for a duration of 5 minutes before terminal exsanguination. […] Cytokines measurements were assessed with serum isolated with serum clot activator tubes.\n(§2) The lungs were excised for analysis: the left lung was cannulated and perfusion-fixed with 10% buffered formalin for histology and immunohistochemistry. […] Pulmonary edema was measured from the ratio of total divided by dry weight of the right lung. Total weight, including water, was measured and lung tissue was dried in an oven at 60° C. for 5 days and reweighed as dry weight."}, "oleic acid-induced ALI [2]": {"test_system": "oleic acid-induced ALI", "assay": "Oleic acid-induced ALI rat model: conscious respiratory parameters by whole body plethysmography", "format": "in vivo", "details": "OA + colchicine 1 mg/kg gavage, 4 hours after oleic acid, mean ± SEM", "experimental": "as §1\nThere was one surgical death in oleic acid+colchicine treatment by laceration of the jugular vein, prior to injection of oleic acid. Oleic acid was administered under ketamine/xylazine anesthesia by slow bolus injection over 30 seconds and the catheter was flushed with 0.3 ml of 0.1% BSA before and after injection. Four hours later, the animals were studied. […] Cytokines measurements were assessed with serum isolated with serum clot activator tubes."}, "oleic acid-induced ALI [3]": {"test_system": "oleic acid-induced ALI", "assay": "Oleic acid-induced ALI rat model: blood cell counts and biochemistry", "format": "in vivo", "details": "OA + colchicine 1 mg/kg gavage, 4 hours after oleic acid, mean ± SEM", "experimental": "as §1\n(§3) There was one surgical death in oleic acid+colchicine treatment by laceration of the jugular vein, prior to injection of oleic acid. Oleic acid was administered under ketamine/xylazine anesthesia by slow bolus injection over 30 seconds and the catheter was flushed with 0.3 ml of 0.1% BSA before and after injection. Four hours later, the animals were studied. Conscious unrestrained respiratory parameters were obtained by whole body plethysmography (Emka technologies). Rats were then anesthetized with 2.5% isoflurance and 100% oxygen (1 L/min) administered with a nose cone/face mask for a duration of 5 minutes before terminal exsanguination. 2 ml of arterial blood was collected through the thoracic aorta into a syringe containing lyophilized heparin for arterial blood gas assessment. The remaining blood was collected into EDTA Lavendar tubes for complete blood count and flow cytometry. Cytokines measurements were assessed with serum isolated with serum clot activator tubes."}, "oleic acid-induced ALI [4]": {"test_system": "oleic acid-induced ALI", "assay": "Oleic acid-induced ALI rat model: lung histology and immunohistology (HPS, MPO, Cit-H3)", "format": "in vivo", "details": "colchicine 1 mg/kg gavage, 4 hours after oleic acid", "experimental": "as §1\nLung histology and immunohistology. All histological and immunohistological procedures were performed by the same person blinded to treatment assignment. The left lung was cannulated and perfused with 10% formalin PBS-buffered solution and fixed for 5 days. Tissues were dehydrated by incubating in a series of solutions with an increased ethanol content (70, 95, and 100%), followed by xylene, and embedded in paraffin. The specimens were cut into 6-μm sections, mounted on charged slides and processed with hematoxylin phloxine saffron (HPS) staining.\nImmunohistological procedures were initiated by incubating the slides in citrate antigen retrieval (pH 6.0) and endogenous peroxidase blocking (3% hydrogen peroxide). Sections were then blocked by incubating in PBS containing 10% normal goat serum (same species as secondary antibody) for 60 minutes. Slides were incubated with a rabbit polyclonal anti-myeloperoxidase (MPO, Pa5-16672; ThermoFisher, MA USA) for neutrophil detection, with a rabbit polyclonal anti-histone H3 citrulline R2+R8+R17, (Cit-H3, ab5103; ABCAM, Cambridge, United Kingdom) for NETosis and primary antibodies were omitted for negative controls. After washing, sections were incubated with a biotinylated secondary antibody (Vector Laboratories, Burlingame, Calif.) for 30 minutes, washed, then incubated with avidin-biotin complex (ABC kit) and visualized using diaminobenzidine substrate (Vector Laboratories) (27-29).\nThe HPS slides were scanned to get a picture of the whole left lung (Super coolscan 5000; Nikon, Tokyo Japan). Using a brightfield microscope (BX45, Olympus, Richmond Hill, ON, Canada), images were acquired under 200× magnification on the most damaged/altered regions, acquiring 5 fields per slide for the HPS staining and 10 fields per slide for IHC (MPO and Cit-H3) staining. For the HPS staining, the following analyses were performed: 1) thickness of alveolar membranes, 2) percentage (%) of altered lung tissue, and 3) injury score of the lungs.\nTo assess the thickness of alveolar membranes, 20 measurements per field were performed (corresponding to 100 measurements per slide) and were expressed as the mean thickness (μm) of the alveolar membranes. A morphometric analysis has been performed to assess the percentage of altered lung tissue over total lung area (excluding trachea, major bronchi, and blood vessels >700 μm diameter). To evaluate lung injury, we used an adapted version of the standardized histology score from the American Thoracic Society Documents (30). […]"}, "oleic acid-induced ALI [5]": {"test_system": "oleic acid-induced ALI", "assay": "Oleic acid-induced ALI rat model: serum cytokine quantification", "format": "in vivo", "details": "4 hours after oleic acid", "experimental": "as §1, §3\nSerum cytokine quantification. Quantitative determination of serum IFN-γ, IL-1β, IL-4, IL-5, IL-6, KC/GRO, IL-10, IL-13, and TNF-α was done using the electrochemiluminescence-based Meso Scale Discovery (MSD) platform (Rockville, Md., USA). Proteins levels were measured in a multiplex assay using the V-PLEX Proinflammatory Panel 2 Rat kit (MSD). Samples were diluted 1:5 in proprietary buffer (MSD) and measured. Data were acquired using a MESO QuickPlex SQ 120 plate reader (MSD) and protein concentrations were determined using the MSD Discovery Workbench 4.0 analysis software. All values reported are between the lower and the upper limits of quantification of the kit. Quantitative determination of serum Cit-H3 was measured by a commercially available ELISA kit (Cayman Chemical, 501620, Ann Arbor, Mich., USA)."}, "blood leukocytes [6]": {"test_system": "blood leukocytes", "assay": "In vitro LPS challenge of blood leukocytes from treated rats (CD11b flow cytometry)", "format": "in vivo", "details": "rat whole blood at sacrifice, LPS 500 ng/mL in vitro, 30 minutes", "experimental": "as §1\nIn vitro LPS challenge of blood leukocytes. Whole blood samples collected on EDTA-coated tubes were incubated, or not, with LPS (500 ng/mL) for 30 minutes at 37° C. […] Data were analyzed on Diva software version 8.0.1 (BD Biosciences)."}, "blood leukocytes [7]": {"test_system": "blood leukocytes", "assay": "Leukocyte immunophenotyping of whole blood by flow cytometry", "format": "in vivo, rat", "details": "4 hours after oleic acid", "experimental": "as §1\nLeukocyte immunophenotyping. Using reverse pipetting, 100 μl of whole blood collected on EDTA-coated tubes were incubated with anti-CD32 to prevent FC-mediated non-specific binding according to the manufacturer's instructions. The panel of antibodies as well as the gating strategy were inspired by Barnett-Vanes and al., PLoS One 2016; 11:e0142520.\nBriefly, a panel of 11 antibodies (Table 1) was used to identify the neutrophils (CD45^+/SSChi/His48^+), the monocytes (CD45^+/SSC^lo/His48 ^hi or lo/CD43^hi or lo), the B lymphocytes (CD45^+/SSC^lo/CD45R^−B220^+), the T lymphocytes (CD45^+/SSC^lo/CD3^+/CD4^+ or CD8^+), and the natural killer cells (CD45^+/SSC^lo/CD161a^+). The whole blood samples were incubated with the antibodies for 20 minutes at room temperature and the BD Pharm Lyse solution was then added for 10 minutes to lyse the erythrocytes. Samples were stored at 4° C. until analysis by flow cytometry (LSRII BD Biosciences). Accucount (Spherotech) was added to establish a cell count per μl of blood. Data were analyzed on Diva software version 8.0.1 (BD Biosciences)."}, "oleic acid-induced ALI [8]": {"test_system": "oleic acid-induced ALI", "assay": "Lung tissue mRNA expression of 27 markers of inflammation and injury by RT-qPCR", "format": "in vivo", "details": "rat lung, 4 hours after oleic acid; colchicine versus OA control", "experimental": "Animal model and colchicine administration. Male Wistar rats weighing 250-300 g were purchased from Charles River, St. Constant, Québec. They were divided in three groups: Sham+placebo (n=8), oleic acid+placebo (n=8) and oleic acid+colchicine (n=8). Oleic acid (150 mg/kg in 0.3 cc) was prepared daily as a mixture with 0.1% bovine serum albumin (BSA) dissolved in distilled water, stored and protected from light at room temperature. Colchicine (1 mg/kg) or distilled water (placebo) was administered by daily gavage (in a volume up to 2 ml/kg) for three days before the induction of the ALI model. […]\nas §2\nTissue homogenization, RNA extraction, RT-PCR, and real-time PCR. […] RNA integrity and quantity were assessed using a 2100 Bioanalyzer Instrument (Agilent, Santa Clara, Calif.). […] The geometric mean of housekeeping genes ACTB, GAPDH, and XBP1 was used as an internal control to normalize the variability in expression levels which were analyzed using the 2^−ΔΔCT method. […]"}, "[9]": {"details": "colchicine 1 mg/kg gavage, 4 hours after oleic acid, versus OA control"}, "[10]": {"details": "rat left lung, HPS staining, mean±SEM"}}, "note": "Marks after values point to notes of the source that are not given here.", "data": [{"smiles": "COc1cc2c(c(OC)c1OC)-c1ccc(OC)c(=O)cc1[C@@H](NC(C)=O)CC2", "note": "[colchicine]", "values": [{"measurement": "PaO2 (equivalent to PaO2/FiO2)", "setting": "oleic acid-induced ALI [1]; colchicine 1 mg/kg daily gavage, 4 doses before oleic acid 150 mg/kg iv, 4 hours later, 100% FiO2, mean±SEM", "result": "246±45", "unit": "mmHg"}, {"measurement": "lung edema (pulmonary edema, total/dry lung weight ratio)", "setting": "oleic acid-induced ALI [1]; [9]", "result": "reduced"}, {"measurement": "respiratory acidosis", "setting": "oleic acid-induced ALI [1]; [9]", "result": "reduced"}, {"measurement": "Peek expiratory flow", "setting": "oleic acid-induced ALI [2]", "result": "13.19 ± 1.41"}, {"measurement": "Peek inspiratory flow", "setting": "oleic acid-induced ALI [2]", "result": "17.75 ± 2.72", "unit": "mL/s"}, {"measurement": "Calcium", "setting": "oleic acid-induced ALI [3]; corrected for pH", "result": "1.40 ± 0.01", "unit": "mmol/L"}, {"measurement": "Bicarbonate", "setting": "oleic acid-induced ALI [3]", "result": "27.6 ± 0.8", "unit": "mmol/L"}, {"measurement": "Lactate", "setting": "oleic acid-induced ALI [3]", "result": "2.4 ± 0.53", "unit": "mmol/L"}, {"measurement": "Leukocytes", "setting": "oleic acid-induced ALI [3]", "result": "4.90 ± 0.68** 10^9/L"}, {"measurement": "Neutrophils", "setting": "oleic acid-induced ALI [3]", "result": "2.71 ± 0.36** 10^9/L"}, {"measurement": "relative reduction of histological lung injury (injured area) versus oleic acid ALI group", "setting": "oleic acid-induced ALI [4]; rat left lung, HPS staining", "result": 61, "unit": "%"}, {"measurement": "Mean alveolar wall thickness", "setting": "oleic acid-induced ALI [4]; [10]", "result": "7.8±1.1", "unit": "μm"}, {"measurement": "lung injury score (maximum score of 70)", "setting": "oleic acid-induced ALI [4]; [10]", "result": "28.7±5.0"}, {"measurement": "proportion of injured area (altered lung tissue over total lung area)", "setting": "oleic acid-induced ALI [4]; [10]", "result": "9.6±3.1", "unit": "%"}, {"measurement": "NETosis (Cit-H3 immunostaining intensity), increase over basal level", "setting": "oleic acid-induced ALI [4]; rat lung, oleic acid alone 63%", "result": 35, "unit": "%"}, {"measurement": "other cytokines measured: Cit-H3, INF-γ, IL-10, IL-13, IL-4 and IL-5", "setting": "oleic acid-induced ALI [5]", "result": "no change"}, {"measurement": "serum IL-6 level", "setting": "oleic acid-induced ALI [5]; colchicine versus OA control", "result": "trend towards reduced"}, {"measurement": "serum KC/GRO", "setting": "oleic acid-induced ALI [5]; colchicine versus OA control", "result": "non-significantly reduced"}, {"measurement": "serum TNF-α", "setting": "oleic acid-induced ALI [5]; colchicine versus OA control", "result": "non-significantly reduced"}, {"measurement": "response to LPS stimulation (cell surface CD11b MFI) in leukocytes and granulocytes", "setting": "blood leukocytes [6]", "result": "restored the normal response"}, {"measurement": "cell surface CD4 and CD8 on respective lymphocyte sub-populations", "setting": "blood leukocytes [7]; rat blood", "result": "normalized"}, {"measurement": "lymphocytes counts on flow cytometry", "setting": "blood leukocytes [7]; rat blood", "result": "no change"}, {"measurement": "neutrophil count on flow cytometry", "setting": "blood leukocytes [7]; rat blood", "result": "increase in neutrophils that was significant"}, {"measurement": "His48 fluorescence of neutrophils", "setting": "blood leukocytes [7]; unstimulated rat blood", "result": "normalized"}, {"measurement": "lung tissue mRNA expression of 27 genes involved in inflammatory responses and injury", "setting": "oleic acid-induced ALI [8]", "result": "no individual statistically significant effect"}]}]}
